Assay results published in patent publication US6784184B2, “5-(arylsulfonyl)-,5-(arylsulfinyl), and 5-(arylsulfanyl)-thiazolidine-2,4-diones useful for inhibition of farnesyl-protein transferase” (Wyeth Holdings Corporation, priority 2001, dated 2004).

Columns and labels:
[1] = tested on: K-ras dependent human colon carcinoma (LoVo); assay: In vivo effects against K-ras dependent human colon carcinoma (LoVo); settings: rats; for S/T = No. Survivors/No.Treated: Day +35 post tumor cell implantation
Description: Compounds of this invention were tested for in vivo effects in rats against various tumors. For the compound of Example 114, when tested against a K-ras dependent human colon carcinoma (LoVo), the following results were obtained (Table II): […]

FPTase (H-Ras substrate) = FPTase (H-Ras substrate) (UniProt P29702+P49355); assay: in vitro FTase Inhibition Assay, H-Ras as substrate for farnesylation; type: biochemical; settings: H-Ras used as substrate for farnesylation
Summary of the method: (§1)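 His6-Ras substrate ([…]) with 10 ng FPTase in 50 mM Tris pH 7.5, ZnCl2, MgCl2, KCl, DTT, 0.2% octyl-β-glucoside, 1% DMSO; incubated 30-90 min. TCA/SDS-precipitated Ras filtered, 3H-FPP incorporation counted; % inhibition from background-corrected cpm versus no-compound control.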

FPTase (K-Ras substrate) = FPTase (K-Ras substrate) (UniProt P29702+P49355); assay: in vitro FTase Inhibition Assay, K-Ras as substrate for farnesylation; type: biochemical; settings: K-Ras used as substrate for farnesylation
Summary of the method: as §1

IC50 (FPTase (H-Ras substrate))	IC50 (FPTase (K-Ras substrate))	Compound	further results
90 nM	3000 nM	COc1ccc(S(=O)(=O)C2(CCCC#Cc3cccc(N)c3)SC(=O)NC2=O)cc1 (stereo not shown) [Example 220, 5-[5-(3-Aminophenyl)pent-4-ynyl]-5-(4-methoxybenzenesulfonyl)-thiazolidine-2,4-dione]	
10 to 320 nM	420 to 440 nM	COC(=O)c1ccc(C)c(C#CCCCC2(S(=O)(=O)c3ccc(OC)cc3)SC(=O)NC2=O)c1 (stereo not shown) [Example 155, 3-{5-[5-(4-Methoxybenzenesulfonyl)-2,4-dioxo-thiazolidin-5-yl]-pent-1-ynyl}-4-methylbenzoic Acid Methyl Ester]	
30 to 50 nM	100 to 3200 nM	COc1ccc(S(=O)(=O)C2(CCCC#Cc3cc(NC(=O)OCc4ccccc4)ccc3C)SC(=O)N(C(=O)OCc3ccccc3)C2=O)cc1 (stereo not shown) [Example 226, Benzyl 5-[5-(5-{[(benzyloxy)carbonyl]-amino}-2-methylphenyl)pent-4-ynyl]-5-[(4-methoxyphenyl)sulfonyl]-2,4-dioxo-1,3-thiazolidine-3-carboxylate]	
7.4 to 32 nM	16 to 68 nM	COc1ccc(S(=O)(=O)C2(CCCC#Cc3cc(NC(=O)OC(C)(C)C)ccc3C)SC(=O)NC2=O)cc1 (stereo not shown) [Example 150, (3-{5-[5-(4-Methoxybenzenesulfonyl)-2,4-dioxothiazolidin-5-yl]pent-1-ynyl}-4-methylphenyl)carbamic Acid tert-Butyl Ester]	
100 nM	1200 nM	COc1ccc(S(=O)(=O)C2(CCCC#Cc3cc(NC(=O)Nc4ccc(Cl)cc4)ccc3C)SC(=O)NC2=O)cc1 (stereo not shown) [Example 189, N-(4-Chlorophenyl)-N′-[3-(5-{5-[(4-methoxy-phenyl)sulfonyl]-2,4-dioxo-1,3-thiazolidin-5-yl}-1-pentynyl)-4-methylphenyl]urea]	
380 nM	4700 nM	Cc1ccc(S(=O)(=O)C2(CC#Cc3ccc(Oc4ccccc4)cc3)SC(=O)NC2=O)cc1 (stereo not shown) [Example 170, 5-[3-(4-Phenoxyphenyl)prop-2-ynyl]-5-(toluene-4-sulfonyl)-thiazolidine-2,4-dione]	

Continued, compound first:

Compound	IC50 (FPTase (H-Ras substrate))	IC50 (FPTase (K-Ras substrate))	further results
CC[C@]1(O)C[C@H]2CN(CCc3c([nH]c4ccccc34)[C@@](C(=O)OC)(c3cc4c(cc3OC)N(C=O)[C@H]3[C@@](O)(C(=O)OC)[C@H](OC(C)=O)[C@]5(CC)C=CCN6CC[C@]43[C@@H]65)C2)C1 [Vincristine, reference compound]			S/T = No. Survivors/No.Treated ([1]; 1 mg/kg IP on days 5, 9 and 13): 9/10
COc1ccc(S(=O)(=O)C2(CCCC#Cc3cc(Cl)ccc3Cl)SC(=O)NC2=O)cc1 (stereo not shown) [Example 114, 5-[5-(2,5-Dichloro-phenyl)pent-4-ynyl]-5-(4-methoxy-benzenesulfonyl)-thiazolidine-2,4-dione]	13 to 32 nM	32 to 320 nM	Mean Tumor Weight ([1]; Day 8, 75* mg/kg IP, BID days 1-20, prepared in 2% Tween 80 in D5W, vs 2% Tween in D5W): 86 mg; % T/C ([1]; Day 15, 75* mg/kg IP, BID days 1-20, prepared in 2% Tween 80 in D5W, vs 2% Tween in D5W): 150%; S/T = No. Survivors/No.Treated ([1]; 50 mg/kg IP, BID days 1-20, Methocel/Tween 80 series): 5/10; S/T = No. Survivors/No.Treated ([1]; 75 mg/kg IP, BID days 1-20, Methocel/Tween 80 series): 8/10; S/T = No. Survivors/No.Treated ([1]; 100 mg/kg IP, once a day days 1-20, Methocel/Tween 80 series): 9/10; S/T = No. Survivors/No.Treated ([1]; 100 mg/kg PO, BID days 1-20, 20% BCD in 0.1 N HCl series): 9/10
Cc1ccc(C(=O)NC(C)(C)C)cc1C#CCCCC1(S(=O)(=O)c2ccc(I)cc2)SC(=O)NC1=O (stereo not shown) [Example 147, N-tert-Butyl-3-{5-[5-(4-iodo-benzenesulfonyl)-2,4-dioxothiazol-idin-5-yl]-pent-1-ynyl}-4-methylbenzamide]	6.8 to 210 nM	80 to 100 nM	
COc1ccc(S(=O)(=O)C2(CCCC#Cc3cccc(Cl)c3)SC(=O)NC2=O)cc1 (stereo not shown) [Example 102, 5-[5-(3-Chlorophenyl)pent-4-ynyl]-5-(4-methoxybenzenesulfonyl)-thiazolidine-2,4-dione]	30 to 32 nM	1400 nM	
COc1ccc(S(=O)(=O)C2(CCCC#Cc3ccc([N+](=O)[O-])cc3)SC(=O)NC2=O)cc1 (stereo not shown) [Example 121, 5-(4-Methoxybenzenesulfonyl)-5-[5-(4-nitrophenyl)pent-4-ynyl]-thiazolidine-2,4-dione]	120 nM	1600 nM	
COc1ccc(S(=O)(=O)C2(CCCC#Cc3ccc(NC(=O)OC(C)(C)C)cc3C)SC(=O)NC2=O)cc1 (stereo not shown) [Example 149, (4-{5-[5-(4-Methoxybenzenesulfonyl)-2,4-dioxo-thiazolidin-5-yl]pent-1-ynyl}-3-methylphenyl)carbamic Acid tert-Butyl Ester]	450 to 500 nM	1000 to 4900 nM	
COc1ccc(S(=O)(=O)C2(CCCC#Cc3ccc([N+](=O)[O-])cc3C)SC(=O)NC2=O)cc1 (stereo not shown) [Example 130, 5-(4-Methoxybenzenesulfonyl)-5-[5-(2-methyl-4-nitrophenyl)-pent-4-ynyl]-thiazolidine-2,4-dione]	23 to 56 nM	320 to 1000 nM	
